Our source for the TGI values is PubChem BioAssay (NCI).

Each structure is given as a SMILES string.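 Where inhibition never reached the appropriate level, the endpoint shown equals the highest concentration tested. Otherwise, values were interpolated linearly from a five-concentration, 48-hour dose response in 96-well plates. TGI marks complete inhibition of growth.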 A value given as a limit tells only on which side of the number the result lay.

Common to all, as to assay: NCI anticancer screen, dose series, 48 h
The subject of experiment [1] is RXF 393 renal.
The test system of experiment [2] is EKVX NSCLC.
Experiment [3] concerns NCI-H226 lung.
The test system of experiment [4] is NCI-H460 lung.
The subject of experiment [5] is OVCAR-4 ovarian.
The subject of experiment [6] is SNB-19 CNS.
The test system of experiment [7] is SK-MEL-28 melanoma.
The test system of experiment [8] is SR leukemia.
Experiment [9] deals with HCC-2998 colon.
In experiment [10] the test system is TK-10 renal.
Experiment [11] deals with HCT-15 colon.
In experiment [12] the test system is HL-60(TB) leukemia.
Experiment [13] deals with UACC-62 melanoma.
The subject of experiment [14] is LOX IMVI melanoma.
In experiment [15] the test system is NCI-H23 lung.
The subject of experiment [16] is SNB-75 CNS.
Experiment [17] has as its system CCRF-CEM leukemia.
Experiment [18] deals with IGROV1 ovarian.
The subject of experiment [19] is MDA-MB-435.
In experiment [20] the test system is UACC-257 melanoma.

For the compound `CCC1(CC)C(=O)N(C(=O)c2ccccc2)N(C(=O)c2ccc(Cl)cc2)C1=O`, the TGI in [1], in experiment [2], in experiment [3], in experiment [4], in experiment [5] and in [6] was over 75 µM throughout. The TGI in [7] was over 75 µM; in experiment [8], 53.6 µM; in experiment [9] it was over 75 µM; in [10], over 75 µM; in experiment [11], over 75 µM; in [12] it was over 75 µM. In addition, the TGI in [13] was over 75 µM; in experiment [14] it was over 75 µM; in [15], over 75 µM; in experiment [16], over 75 µM; in [17], 51.3 µM; in experiment [18] it was over 75 µM. Besides, the TGI in experiment [19] and in experiment [20] was over 75 µM throughout.
As for `O=C1OC(C2Cc3ccc4c(c3C2=O)CCC4)c2ccccc21` (stereo not drawn), the TGI in [1] was over 100 µM; in [2] it was over 100 µM; in experiment [3] it was 83.6 µM; in experiment [4] it was over 100 µM; in [5], over 100 µM; in [6], over 100 µM. The TGI in experiment [7] was over 100 µM; in [8], over 100 µM; in [9], over 100 µM; in experiment [10], over 100 µM; in experiment [11], over 100 µM; in experiment [12], 83.1 µM. Also, the TGI in experiment [13], in [14], in experiment [15], in [16], in experiment [17] and in experiment [18] was over 100 µM throughout. Further, the TGI in experiment [19] and in experiment [20] was over 100 µM throughout.
On to `CCOC(=O)c1ccc(C(=O)n2ccnc2)[nH]1`, for which the TGI in experiment [1], in experiment [2], in [3], in experiment [4], in experiment [5] and in experiment [6] was over 100 µM throughout. Moreover, the TGI in [7], in [8], in [9], in experiment [10], in experiment [11] and in [12] was over 100 µM each time. Also, the TGI in experiment [13], in [14], in experiment [15], in [16], in experiment [17] and in experiment [18] was over 100 µM in each case. The TGI in experiment [19] and in experiment [20] was over 100 µM each time.
On to `CC(=O)NCCCCN(CCCNC(C)=O)C(=O)CNS(=O)(=O)c1cccc2c(N(C)C)cccc12`, for which the TGI in [1], in experiment [2], in experiment [3], in experiment [4], in experiment [5] and in experiment [6] was over 100 µM in each case. Moreover, the TGI in experiment [7], in [8], in [9], in [10], in experiment [11] and in [12] was over 100 µM each time. Besides, the TGI in [13], in experiment [14], in experiment [15], in [17], in [18] and in experiment [19] was over 100 µM throughout. The compound further showed a TGI in experiment [20] of over 100 µM.
As to `Oc1[nH]c(=S)[nH]c1/C=C1/C(c2ccccc2)=Nc2ccccc21`, the TGI turned out to be 28.7 µM in experiment [1]; 36.4 µM in [2]; 35.8 µM in experiment [3]; 27.6 µM in experiment [4]; 57.4 µM in [5]; 76.3 µM in [6]. In addition, the TGI in experiment [7] came out at 30.3 µM; in experiment [8], 27.9 µM; in experiment [9], 36.9 µM; in experiment [10] it was 44.5 µM; in experiment [11], 31.2 µM; in [12] it was 26.1 µM. The TGI amounted to 26.4 µM in experiment [13]; 24.3 µM in experiment [14]; 29 µM in experiment [15]; 28.8 µM in experiment [16]; 30.3 µM in experiment [18]; 26.7 µM in experiment [19]. The TGI in [20] was 29 µM.
Regarding `COc1cc2c(c(O)c1OC)C(=O)[C@@H]1CCC(=O)N1C2c1ccccc1` (stereo partly drawn), the TGI in [2], in experiment [3], in experiment [4], in experiment [5], in experiment [6] and in experiment [7] was over 100 µM in each case. The TGI in experiment [8], in [9], in experiment [10], in experiment [11], in [12] and in [13] was over 100 µM throughout. In addition, the TGI in experiment [14], in experiment [15], in experiment [16], in [17], in experiment [18] and in experiment [19] was over 100 µM in each case. Further, in experiment [20], the TGI is over 100 µM.
As for `O=c1cc(NNCc2ccccc2)[nH]c(=O)[nH]1`, the TGI in experiment [1], in experiment [2], in [3], in experiment [4], in experiment [5] and in experiment [6] was over 100 µM in each case. In addition, the TGI in [7], in experiment [8], in experiment [9], in [10], in experiment [11] and in experiment [12] was over 100 µM in each case. Further, the TGI in experiment [14], in experiment [15], in [17], in experiment [18], in experiment [19] and in experiment [20] was over 100 µM each time.
On to `C/C=C(/C)C(=O)O[C@H]1[C@H]2[C@@H]([C@@H](OC(C)=O)[C@H](C)C(=O)[C@@]34C[C@@H](C)C(=O)[C@]3(/C=C(\C)[C@H]1OC(C)=O)O4)C2(C)C`, for which the TGI in experiment [1] was 6.75 µM; in [2] it was 17.1 µM; in experiment [3], 6.56 µM; in [4] it was over 20 µM; in [5] it was 14.2 µM; in [6] it was 18.4 µM. In addition, the TGI was 7.34 µM in experiment [8]; 8.53 µM in experiment [9]; 7.61 µM in experiment [10]; 5.77 µM in experiment [11]; 2.13 µM in experiment [12]; 6.99 µM in [13]. The TGI in experiment [14] is 6.27 µM; in [15], over 20 µM; in experiment [16], over 20 µM; in experiment [17], 3.35 µM; in experiment [18], 9.96 µM; in [19], 6.6 µM. Further, the TGI in experiment [20] stood at 10.9 µM.
In the case of `CCCC1CC(=O)NC(=O)C1C(=O)OC(C)(C)C` (stereo not drawn), the TGI in [1], in experiment [2], in experiment [3], in experiment [4], in experiment [5] and in [6] was over 100 µM in each case. Besides, the TGI in experiment [7], in [8], in experiment [9], in [10], in experiment [11] and in experiment [12] was over 100 µM throughout. Moreover, the TGI in [13], in [14], in [15], in experiment [16], in [18] and in experiment [19] was over 100 µM in each case. The compound further showed a TGI in experiment [20] of over 100 µM.
Consider `O=S1(=O)c2ccccc2C(Nc2ccccc2)N1c1ccccc1` (stereo not drawn), for which the TGI in [1], in experiment [2], in [3], in experiment [4], in experiment [5] and in [7] was over 100 µM each time. Further, the TGI in experiment [8], in [9], in [10], in experiment [11], in experiment [12] and in experiment [13] was over 100 µM in each case. The TGI in [14], in experiment [15], in experiment [16], in experiment [17], in [18] and in experiment [19] was over 100 µM each time. For the same compound, the TGI in [20] was over 100 µM.
As for `COc1ccc2c(C)c(Oc3c(Cl)c(Cl)c(O)c(C#N)c3C#N)oc2c1`, the TGI in [2], in experiment [3], in experiment [4], in experiment [5], in experiment [6] and in [7] was over 100 µM in each case. Also, the TGI in experiment [8], in [9], in [10], in experiment [11], in [12] and in [13] was over 100 µM in each case. Moreover, the TGI in experiment [14], in [15], in experiment [16], in experiment [17], in experiment [18] and in experiment [19] was over 100 µM throughout. In [20], this compound had a TGI of over 100 µM.
For `CCOC(=O)C(NC(C)=O)(Nc1ccc(S(N)(=O)=O)cc1)C(F)(F)F` (stereo not drawn), the TGI in [1], in [2], in experiment [3], in experiment [4], in experiment [5] and in experiment [6] was over 100 µM in each case. Also, the TGI in [7], in experiment [8], in experiment [9], in experiment [10], in experiment [11] and in experiment [12] was over 100 µM in each case. For the same compound, the TGI in experiment [14], in experiment [15], in experiment [16], in experiment [17], in experiment [18] and in experiment [19] was over 100 µM in each case. In experiment [20], this compound returned a TGI of over 100 µM.
As to `N#Cc1ccc(-c2nc3c(N)nc(-c4ccccc4)nc3o2)cc1`, the TGI in [1], in [2], in [3], in experiment [4], in experiment [5] and in experiment [6] was over 100 µM throughout. The TGI in [7], in experiment [8], in [9], in [10], in [11] and in experiment [12] was over 100 µM each time. The TGI in experiment [13], in experiment [14], in experiment [15], in experiment [16], in experiment [18] and in experiment [19] was over 100 µM each time. The TGI in experiment [20] is over 100 µM.
As to `CCOC(=O)CC1(Cc2ccc(OCc3ccccc3)cc2)C(=O)OC(c2ccccc2)N1C(=O)c1ccccc1` (stereo not drawn), the TGI in experiment [1] is over 100 µM; in experiment [2] it was over 100 µM; in experiment [3], over 100 µM; in experiment [4] it was 62.1 µM; in experiment [5] it was over 100 µM; in experiment [6] it was over 100 µM. Also, the TGI in experiment [7] is over 100 µM; in experiment [8], over 100 µM; in [9], 84.7 µM; in [10] it was over 100 µM; in experiment [11], over 100 µM; in experiment [12] it was over 100 µM. Besides, the TGI in experiment [13], in [14], in [15], in [17], in [18] and in [19] was over 100 µM each time. The compound further displayed a TGI in [20] of over 100 µM.
